Reference: PubChem BioAssay AID1259408 (Genetic Toxicology Data Bank (GENE-TOX), 2018)
Calls of active or inactive are those of the source. No rule for the calls is given here.

Tested on: GENE-TOX genotoxicity assays, various organisms and cells
Test: GENE-TOX mutagenicity studies
Details: for call: Assay Type: In vivo carcinogenicity studies
[1] = Species/Cell Type: Escherichia coli polA (W3119 vs P3478), Assay Type: Rec-assay, DNA effects (bacterial DNA repair), Assay Code: RE1+, Evaluation Type: Evaluation A (Pre-1980)
[2] = Species/Cell Type: Human diploid fibroblasts, Assay Type: Unscheduled DNA synthesis (UDS) in vitro, DNA effects, Assay Code: UDH-, Evaluation Type: Evaluation A (Pre-1980)
[3] = Species/Cell Type: Nonhuman, Assay Code: CCG+, Evaluation Type: Evaluation A (Pre-1980)
[4] = Species/Cell Type: Saccharomyces cerevisiae, Assay Type: Mitotic recombination or gene conversion, Assay Code: YEH+, Evaluation Type: Evaluation A (Pre-1980)
[5] = Species/Cell Type: Salmonella typhimurium (one or more of the five standard strains: TA98, TA100, TA1535, TA1537, and TA1538), Assay Type: Histidine reverse gene mutation, Ames assay, Assay Code: SAL+, Evaluation Type: Evaluation A (Pre-1980)
[6] = Species/Cell Type: Salmonella typhimurium, Assay Type: Forward and reverse gene mutation, host-mediated assay, Assay Code: HMA+, Evaluation Type: Evaluation A (Pre-1980)
[7] = Species/Cell Type: Syrian hamster embryo (SHE) cells, Assay Type: Cell transformation, clonal assay, Assay Code: CTC+, Evaluation Type: Evaluation A (Pre-1980)
[8] = Species/Cell Type: Mammalian polychromatic erythrocytes, Assay Type: Micronucleus test, chromosome aberrations, Assay Code: MNT+U, Dose Response: Unconfirmed positive response, Evaluation Type: Evaluation B (Post-1980)
[9] = Species/Cell Type: Escherichia coli polA (W3119 vs P3478), Assay Type: Rec-assay, DNA effects (bacterial DNA repair), Assay Code: RE1T, Evaluation Type: Evaluation A (Pre-1980)
[10] = Species/Cell Type: Saccharomyces cerevisiae, Assay Type: Mitotic recombination or gene conversion, Assay Code: YEH-, Evaluation Type: Evaluation A (Pre-1980)
[11] = Species/Cell Type: Salmonella typhimurium (one or more of the five standard strains: TA98, TA100, TA1535, TA1537, and TA1538), Assay Type: Histidine reverse gene mutation, Ames assay, Assay Code: SALT, Evaluation Type: Evaluation A (Pre-1980)
[12] = Species/Cell Type: Fischer rat embryo (RLV/1706) cells, Assay Type: Cell transformation, viral enhanced, Assay Code: CTR+, Evaluation Type: Evaluation A (Pre-1980)
[13] = Species/Cell Type: Drosophila melanogaster, Assay Type: Sex-linked recessive lethal gene mutation, Assay Code: SRL+, Evaluation Type: Evaluation A (Pre-1980)
[14] = Species/Cell Type: Syrian hamster embryo (SA7/SHE) cells, Assay Type: Cell transformation, viral enhanced, Assay Code: CT7+, Evaluation Type: Evaluation A (Pre-1980)
[15] = Species/Cell Type: Mouse, Sex: Male, Assay Type: Sperm morphology, Assay Code: SPI-, Evaluation Type: Evaluation A (Pre-1980)
[16] = Species/Cell Type: Salmonella typhimurium (one or more of the five standard strains: TA98, TA100, TA1535, TA1537, and TA1538), Assay Type: Histidine reverse gene mutation, Ames assay, Assay Code: SAL+*, Activation: With metabolic activation, Evaluation Type: Evaluation A (Pre-1980)

CN(C)C(=O)Cl
mutagenic call [1]: active; positive
mutagenic call [2]: inactive; negative
mutagenic call (Species/Cell Type: Mammalian polychromatic erythrocytes, Assay Type: Micronucleus test, chromosome aberrations, Assay Code: MNT+, Evaluation Type: Evaluation A (Pre-1980)): active; positive
call [3]: active; positive
mutagenic call (Species/Cell Type: Nonhuman, Assay Type: Sister-chromatid exchange (SCE) in vitro, Assay Code: SC2+D, Dose Response: With dose response, Evaluation Type: Evaluation B (Post-1980)): active; positive
mutagenic call [4]: active; positive
mutagenic call [5]: active; positive
mutagenic call [6]: active; positive
mutagenic call [7]: active; positive

C=CC(=O)OC
mutagenic call [8]: active; positive

NC(=S)Nc1ccccc1
call (Species/Cell Type: Nonhuman, Assay Code: CCG-L, Evaluation Type: Evaluation A (Pre-1980)): inactive; negative

CCOP(=S)(OCC)SCSCC
mutagenic call (Species/Cell Type: Bacillus subtilis (H17 vs M45), Assay Type: Rec-assay, spot test, DNA effects (bacterial DNA repair), Assay Code: REWT, Evaluation Type: Evaluation A (Pre-1980)): no conclusion
mutagenic call (Species/Cell Type: Drosophila melanogaster, Assay Type: Sex-linked recessive lethal gene mutation, Assay Code: SRL-, Evaluation Type: Evaluation A (Pre-1980)): inactive; negative
mutagenic call (Species/Cell Type: Escherichia coli WP2 UVRA, Assay Type: Tryptophan reverse gene mutation, Assay Code: WPU-*, Activation: With metabolic activation, Evaluation Type: Evaluation A (Pre-1980)): inactive; negative
mutagenic call [9]: no conclusion
mutagenic call (Species/Cell Type: Hordeum vulgare (barley), Assay Type: Chromosome aberrations, Assay Code: HOC+D, Dose Response: With dose response, Evaluation Type: Evaluation A (Pre-1980)): active; positive
mutagenic call [2]: inactive; negative
mutagenic call (Species/Cell Type: Human, Assay Type: Sister-chromatid exchange (SCE) in vitro, Assay Code: SC1+D, Dose Response: With dose response, Evaluation Type: Evaluation B (Post-1980)): active; positive
mutagenic call [8]: active; positive
mutagenic call [10]: inactive; negative
mutagenic call [11]: no conclusion

Oc1ccc2c3c(cccc13)CC2
mutagenic call [11]: no conclusion

S=C=Nc1cccc2ccccc12
mutagenic call (Species/Cell Type: Escherichia coli polA (W3110 vs P3478), Assay Type: Rec-assay, DNA effects (bacterial DNA repair), Assay Code: RE2-, Evaluation Type: Evaluation A (Pre-1980)): inactive; negative
mutagenic call [9]: no conclusion
mutagenic call (Species/Cell Type: Mouse (BALB/c-3T3) cells, Assay Type: Cell transformation, Assay Code: CTB+D, Dose Response: With dose response, Evaluation Type: Evaluation A (Pre-1980)): active; positive
call (Species/Cell Type: Nonhuman, Assay Code: CCGT, Evaluation Type: Evaluation A (Pre-1980)): no conclusion
mutagenic call [10]: inactive; negative
mutagenic call (Species/Cell Type: Salmonella typhimurium, Assay Type: Forward and reverse gene mutation, host-mediated assay, Assay Code: HMA-, Evaluation Type: Evaluation A (Pre-1980)): inactive; negative
mutagenic call (Species/Cell Type: Syrian hamster embryo (SHE) cells, Assay Type: Cell transformation, clonal assay, Assay Code: CTC-, Evaluation Type: Evaluation A (Pre-1980)): inactive; negative

c1ccc2c(c1)ccc1c3ccccc3c(C3CO3)cc21 (configuration not stated)
mutagenic call [5]: active; positive

CCNCCNc1ccc(CO)c2sc3ccccc3c(=O)c12
mutagenic call [12]: active; positive

C1N2CN3CN1CN(C2)C3
mutagenic call [1]: active; positive

CC1(C)C(C=C(Cl)Cl)C1C(=O)OCc1cccc(Oc2ccccc2)c1 (configuration not stated)
mutagenic call [2]: inactive; negative
mutagenic call [10]: inactive; negative

Cn1c(=O)c2c([nH]c(=O)n2C)n(C)c1=O
mutagenic call (Species/Cell Type: Allium cepa, Assay Type: Chromosome aberrations, Assay Code: ALC-, Evaluation Type: Evaluation A (Pre-1980)): inactive; negative

C/C=C1\C[C@H]2[C@@H](OC)Nc3cc(O)c(OC)cc3C(=O)N2C1
mutagenic call (Species/Cell Type: Mammalian polychromatic erythrocytes, Assay Type: Micronucleus test, chromosome aberrations, Assay Code: MNTT, Evaluation Type: Evaluation B (Post-1980)): no conclusion

CCCCSP(=O)(SCCCC)SCCCC
mutagenic call (Species/Cell Type: Nonhuman, Assay Type: Sister-chromatid exchange (SCE) in vitro, Assay Code: SC2-, Evaluation Type: Evaluation B (Post-1980)): inactive; negative

CC1CO1 (configuration not stated)
mutagenic call (Species/Cell Type: Chinese hamster ovary (CHO) cells, Assay Type: Forward gene mutation at the HPRT locus, Assay Code: CHO+, Evaluation Type: Evaluation B (Post-1980)): active; positive
mutagenic call [13]: active; positive
mutagenic call (Species/Cell Type: Neurospora crassa, Assay Type: Reverse gene mutation, Assay Code: NER+, Evaluation Type: Evaluation A (Pre-1980)): active; positive
call [3]: active; positive
mutagenic call (Species/Cell Type: Nonhuman, Assay Type: Sister-chromatid exchange (SCE) in vivo, Assay Code: SC3T, Evaluation Type: Evaluation B (Post-1980)): no conclusion
mutagenic call (Species/Cell Type: Rodents, Sex: Male, Assay Type: Dominant lethal test, Assay Code: DLT-, Evaluation Type: Evaluation A (Pre-1980)): inactive; negative
mutagenic call (Species/Cell Type: Schizosaccharomyces pombe, Assay Type: Reverse gene mutation, Assay Code: YEZ+, Evaluation Type: Evaluation A (Pre-1980)): active; positive
mutagenic call [14]: active; positive

CCC(=O)O[C@H]1CC[C@H]2[C@@H]3CCC4=CC(=O)CC[C@]4(C)[C@H]3CC[C@]12C
mutagenic call (Species/Cell Type: Human, Sex: Male, Assay Type: Sperm morphology, Assay Code: SPH+, Evaluation Type: Evaluation A (Pre-1980)): active; positive
call [3]: active; positive

CC(=O)OC/N=[N+](/C)[O-]
mutagenic call (Species/Cell Type: Chinese hamster lung (V79) cells, Assay Type: Forward gene mutation at the HPRT or ouabain locus, Assay Code: V79+, Evaluation Type: Evaluation A (Pre-1980)): active; positive
mutagenic call [13]: active; positive
mutagenic call [1]: active; positive
mutagenic call [12]: active; positive
mutagenic call (Species/Cell Type: Mouse (BALB/c-3T3) cells, Assay Type: Cell transformation, Assay Code: CTB+, Evaluation Type: Evaluation A (Pre-1980)): active; positive
mutagenic call [15]: inactive; negative
call [3]: active; positive
mutagenic call (Species/Cell Type: Nonhuman, Assay Type: Sister-chromatid exchange (SCE) in vitro, Assay Code: SC2+D, Dose Response: With dose response, Evaluation Type: Evaluation A (Pre-1980)): active; positive
mutagenic call (Species/Cell Type: Nonhuman, Assay Type: Sister-chromatid exchange (SCE) in vivo, Assay Code: SC3+, Evaluation Type: Evaluation B (Post-1980)): active; positive
mutagenic call [4]: active; positive
mutagenic call [6]: active; positive
mutagenic call [14]: active; positive
mutagenic call [7]: active; positive

FC(F)(Cl)Br
mutagenic call (Species/Cell Type: Mammalian polychromatic erythrocytes, Assay Type: Micronucleus test, chromosome aberrations, Assay Code: MNT-, Evaluation Type: Evaluation B (Post-1980)): inactive; negative

Nc1ccc(N=Nc2ccc(S(=O)(=O)O)cc2)c(N)c1
mutagenic call [16]: active; positive

CN1CCN(c2ccc([N+](=O)[O-])c3no[n+]([O-])c23)CC1
mutagenic call [5]: active; positive

c1cc2cc3c4c(ccc5cc6c(c1CCC6)c2c54)CCC3
mutagenic call [16]: active; positive

COc1ccc(OC)c(N=Nc2c(O)ccc3ccccc23)c1
call [3]: active; positive
mutagenic call (Species/Cell Type: Salmonella typhimurium (one or more of the five standard strains: TA98, TA100, TA1535, TA1537, and TA1538), Assay Type: Histidine reverse gene mutation, Ames assay, Assay Code: SAL-, Evaluation Type: Evaluation A (Pre-1980)): inactive; negative

N#Cc1ccc(N)cc1
mutagenic call [15]: inactive; negative

O[As](O)O
mutagenic call (Species/Cell Type: Escherichia coli WP2, Assay Type: Tryptophan reverse gene mutation, Assay Code: WP2-, Evaluation Type: Evaluation A (Pre-1980)): inactive; negative
mutagenic call (Species/Cell Type: Human lymphocytes or leukocytes, Assay Type: Chromosome aberrations in vitro, Assay Code: CY7+, Evaluation Type: Evaluation A (Pre-1980)): active; positive

Nc1cc2c3ccccc3ccc2c2ccccc12
mutagenic call [16]: active; positive

CC(=O)Oc1cc(OC(C)=O)c2c(=O)c(OC(C)=O)c(-c3ccc(OC(C)=O)c(OC(C)=O)c3)oc2c1
mutagenic call [16]: active; positive

CCN(CCCCO)N=O
mutagenic call [11]: no conclusion
